Numbers after ± are expanded uncertainties.
Columns and labels:
[1] = 101.33 kPa, Liquid; for thermal conductivity: Hot wire method; for viscosity: Cone and plate viscometry
[2] = molar heat capacity at constant pressure; details: 101.33 kPa, Liquid, Small sample (50 mg) DSC

CCCCCCCCCCCCCC[P+](CCCCCC)(CCCCCC)CCCCCC.O=S(=O)([N-]S(=O)(=O)C(F)(F)F)C(F)(F)F
thermal conductivity ([1]; 285.65 K): 0.139 ± 0.02 W/m/K | thermal conductivity ([1]; 293.14 K): 0.138 ± 0.02 W/m/K | thermal conductivity ([1]; 297.72 K): 0.137 ± 0.02 W/m/K | thermal conductivity ([1]; 302.37 K): 0.137 ± 0.02 W/m/K | thermal conductivity ([1]; 313.04 K): 0.135 ± 0.02 W/m/K | thermal conductivity ([1]; 323.58 K): 0.134 ± 0.02 W/m/K | thermal conductivity ([1]; 333.55 K): 0.135 ± 0.02 W/m/K | molar heat capacity at constant pressure ([2]; 333.15 K): 1367.6 ± 58 J/K/mol | molar heat capacity at constant pressure ([2]; 338.15 K): 1372.2 ± 58 J/K/mol | molar heat capacity at constant pressure ([2]; 343.15 K): 1378.3 ± 59 J/K/mol | molar heat capacity at constant pressure ([2]; 348.15 K): 1386.7 ± 59 J/K/mol | molar heat capacity at constant pressure ([2]; 353.15 K): 1395.1 ± 59 J/K/mol | molar heat capacity at constant pressure ([2]; 358.15 K): 1403.5 ± 60 J/K/mol | molar heat capacity at constant pressure ([2]; 363.15 K): 1413.4 ± 60 J/K/mol | molar heat capacity at constant pressure ([2]; 368.15 K): 1426.4 ± 60 J/K/mol | molar heat capacity at constant pressure ([2]; 373.15 K): 1435.6 ± 61 J/K/mol | molar heat capacity at constant pressure ([2]; 378.15 K): 1440.9 ± 61 J/K/mol | molar heat capacity at constant pressure ([2]; 383.15 K): 1450.1 ± 62 J/K/mol | molar heat capacity at constant pressure ([2]; 388.15 K): 1457.7 ± 62 J/K/mol | molar heat capacity at constant pressure ([2]; 393.15 K): 1465.4 ± 62 J/K/mol | molar heat capacity at constant pressure ([2]; 398.15 K): 1473.8 ± 63 J/K/mol | molar heat capacity at constant pressure ([2]; 403.15 K): 1480.6 ± 63 J/K/mol | molar heat capacity at constant pressure ([2]; 408.15 K): 1488.3 ± 63 J/K/mol | molar heat capacity at constant pressure ([2]; 413.15 K): 1495.9 ± 63 J/K/mol | molar heat capacity at constant pressure ([2]; 418.15 K): 1502.8 ± 63 J/K/mol | molar heat capacity at constant pressure ([2]; 423.15 K): 1509.7 ± 64 J/K/mol | molar heat capacity at constant pressure ([2]; 428.15 K): 1517.3 ± 64 J/K/mol | molar heat capacity at constant pressure ([2]; 438.15 K): 1533.4 ± 65 J/K/mol | molar heat capacity at constant pressure ([2]; 443.15 K): 1536.4 ± 65 J/K/mol | molar heat capacity at constant pressure ([2]; 448.15 K): 1542.5 ± 66 J/K/mol | molar heat capacity at constant pressure ([2]; 453.15 K): 1550.2 ± 66 J/K/mol | molar heat capacity at constant pressure ([2]; 458.15 K): 1556.3 ± 66 J/K/mol | molar heat capacity at constant pressure ([2]; 463.15 K): 1560.9 ± 66 J/K/mol

CCCCCCCCCCCCCC[P+](CCCCCC)(CCCCCC)CCCCCC.FC(F)(F)C(F)(F)[P-](F)(F)(F)(C(F)(F)C(F)(F)F)C(F)(F)C(F)(F)F
thermal conductivity ([1]; 282.19 K): 0.126 ± 0.02 W/m/K | thermal conductivity ([1]; 292.99 K): 0.125 ± 0.02 W/m/K | thermal conductivity ([1]; 298.41 K): 0.125 ± 0.02 W/m/K | thermal conductivity ([1]; 303.54 K): 0.125 ± 0.02 W/m/K | thermal conductivity ([1]; 314.37 K): 0.123 ± 0.02 W/m/K | thermal conductivity ([1]; 325.65 K): 0.123 ± 0.02 W/m/K | thermal conductivity ([1]; 334.58 K): 0.123 ± 0.02 W/m/K | thermal conductivity ([1]; 344.18 K): 0.123 ± 0.02 W/m/K | thermal conductivity ([1]; 355.07 K): 0.121 ± 0.02 W/m/K

CCCC[P+](C)(CCCC)CCCC.COS(=O)(=O)[O-] [tributylmethylphosphonium methyl sulfate]
thermal conductivity ([1]; 283.34 K): 0.157 ± 0.02 W/m/K | thermal conductivity ([1]; 293.28 K): 0.156 ± 0.02 W/m/K | thermal conductivity ([1]; 298.36 K): 0.155 ± 0.02 W/m/K | thermal conductivity ([1]; 303.45 K): 0.155 ± 0.02 W/m/K | thermal conductivity ([1]; 313.5 K): 0.153 ± 0.02 W/m/K | thermal conductivity ([1]; 323.6 K): 0.153 ± 0.02 W/m/K | thermal conductivity ([1]; 333.58 K): 0.153 ± 0.02 W/m/K | thermal conductivity ([1]; 343.61 K): 0.153 ± 0.02 W/m/K | thermal conductivity ([1]; 353.51 K): 0.153 ± 0.02 W/m/K

CC(CC(C)(C)C)CP(=O)([O-])CC(C)CC(C)(C)C.CCCCCCCCCCCCCC[P+](CCCCCC)(CCCCCC)CCCCCC
thermal conductivity ([1]; 282.47 K): 0.137 ± 0.02 W/m/K | thermal conductivity ([1]; 292.94 K): 0.136 ± 0.02 W/m/K | thermal conductivity ([1]; 298.04 K): 0.135 ± 0.02 W/m/K | viscosity ([1]; 298.15 K): 847.3 mPa·s | thermal conductivity ([1]; 303.15 K): 0.135 ± 0.02 W/m/K | viscosity ([1]; 313.15 K): 568.54 mPa·s | thermal conductivity ([1]; 313.45 K): 0.133 ± 0.02 W/m/K | viscosity ([1]; 323.15 K): 387.46 mPa·s | thermal conductivity ([1]; 323.45 K): 0.132 ± 0.02 W/m/K | viscosity ([1]; 333.15 K): 125.61 mPa·s | thermal conductivity ([1]; 333.55 K): 0.131 ± 0.02 W/m/K | thermal conductivity ([1]; 343.59 K): 0.131 ± 0.02 W/m/K | thermal conductivity ([1]; 353.62 K): 0.131 ± 0.02 W/m/K | molar heat capacity at constant pressure ([2]; 293.15 K): 1619.2 ± 69 J/K/mol | molar heat capacity at constant pressure ([2]; 298.15 K): 1634.7 ± 70 J/K/mol | molar heat capacity at constant pressure ([2]; 303.15 K): 1644.7 ± 70 J/K/mol | molar heat capacity at constant pressure ([2]; 308.15 K): 1655.6 ± 70 J/K/mol | molar heat capacity at constant pressure ([2]; 313.15 K): 1667.2 ± 70 J/K/mol | molar heat capacity at constant pressure ([2]; 318.15 K): 1678 ± 71 J/K/mol | molar heat capacity at constant pressure ([2]; 323.15 K): 1688 ± 72 J/K/mol | molar heat capacity at constant pressure ([2]; 328.15 K): 1698.1 ± 72 J/K/mol | molar heat capacity at constant pressure ([2]; 333.15 K): 1708.2 ± 73 J/K/mol | molar heat capacity at constant pressure ([2]; 338.15 K): 1717.4 ± 73 J/K/mol | molar heat capacity at constant pressure ([2]; 343.15 K): 1725.9 ± 73 J/K/mol | molar heat capacity at constant pressure ([2]; 348.15 K): 1736 ± 73 J/K/mol | molar heat capacity at constant pressure ([2]; 353.15 K): 1745.3 ± 74 J/K/mol | molar heat capacity at constant pressure ([2]; 358.15 K): 1754.5 ± 74 J/K/mol | molar heat capacity at constant pressure ([2]; 363.15 K): 1763.8 ± 75 J/K/mol

From the NIST ThermoML archive (doi:10.1016/j.jct.2013.04.013)
